Measured values: patent publication US9381166B2 (Rigshospitalet, priority 2007, dated 2016)
Read-outs that look alike come from different tables or passages of the source. Values belong to the molecule of their own block, whether it stands above or below them.

Experiments:
[1] = test system: hemostatic system; test: TEG MA with combination of adrenergic receptor agonist and antagonists; type: in vivo, human
Protocol: FIG. 10: Seven healthy volunteers received 3 doses of adrenaline infusion lasting for 5 minutes each in the following step-wise increasing doses 3.5, 5.0 and 6.0 μg/kg/h. After resting 1 hour, the subjects received 0.15 μg/kg Seloken i.v. and rested again 30 minutes before repeating the step-wise adrenaline infusions. Blood samples were obtained from an arterial catheter at baseline (t=0.0), after each of the first adrenaline doses (t=5.0, t=10.1, t=15.0), at baseline after Seloken administration and rest (t=0.1) and after each of the subsequent adrenaline infusions (t=5.1, t=10.1, t=15.1). The blood was analyzed with TEG as described in FIG. 3 and Example 1. TEG MA values are presented as mean with 95% Cl and analyzed with a 2-way repeated measurements (RM) ANOVA with post hoc Bonferroni adjusted paired t-test of t=0.0 vs. t=5.0, t=10.1, t=15.0, respectively and t=0.1 vs. t=5.1, t=10.1, t=15.1, ***p<0.001.
Healthy volunteers rested 1 hour before receiving step-wise i.v. administration of adrenaline in the doses 3.5, 5.0 and 6.0 μg/kg/h, five minutes infusion at each dose, as described in FIG. 4. Hereafter the subjects rested for 1 hour and received an antagonist by i.v. infusion propanolol (primarily a β-2 antagonist, 0.15 mg/kg for 10 minutes), n=8, Urapidil (α-1 antagonist, 50 mg) or Seloken (β-1 antagonist 0.15 mg/kg for 10 minutes), n=7. […]

[2] = Plasma potassium concentration before and after adrenaline and Seloken; type: in vivo, human
From the text: Plasma K+ concentrations where followed before and after administration of both adrenaline and Seloken (beta blocker).

[3] = Hemodynamic monitoring during adrenaline infusion without or with Seloken; type: in vivo, human
From the text: FIG. 11: The healthy subjects described in FIG. 10 were monitored haemodynamically at the same time points as described in FIG. 10. (a) heart rate (HR), (b) cardiac output (CO), (c) stroke volume (SV), (d) invasive blood pressure: mean arterial pressure, MAP) and (d) total peripheral resistance (TPR). […] The conc x treatment is an analysis of the total response/the total pattern, to check whether there is an interaction between concentration and treatment. […] ANOVA: Analysis of variance.
The hemodynamic changes comprising heart rate (HR), cardiac output (CO), stroke volume (SV), mean arterial pressure (MAP) and total peripheral resistance (TPR) were monitored during the protocol described in example 7 and FIG. 10.

[4] = i.v. step-wise 1, 2, 3 μg/kg/h or 3 μg/kg/h for 15 minutes before skin incision, vs 40 control patients
Protocol: The 2 intervention groups were compared to 40 controls also undergoing prostatectomy, whereof 20 underwent surgery prior to the interventions and the last 20 after the intervention. All values including median for each group is depicted. Comparisons between control group and each of the intervention groups was done separately by Mann Whitney test.
Blood loss of the 10 patients described in example 2 and 10 additional prostatectomy patients receiving a 15 minutes continuous adrenaline infusion of 3 μg/kg/h before skin incision were compared to 40 control patients, not receiving adrenaline, whereof 20 were operated before the interventions and the last 20 subsequently after the intervention (FIG. 8).

[5] = test system: hemostatic system; test: Thrombelastography (TEG) of arterial whole blood after i.v. infusion in healthy volunteers; type: in vivo, human
Protocol: FIG. 3: Representative TEG profile of healthy volunteers before and after administration of adrenaline. Whole blood was drawn in 1/10 citrate from an arterial catheter. The citrated whole blood sample rested exactly 30 minutes at room temperature before TEG analysis on the Thrombelastograph Hemostasis Analyser, series 5000 (Haemoscope Corp., Skokie, Ill.): One ml of citrated whole blood was transferred to a kaolin vial (Haemoscope Corp.) and gently mixed by inversion 5 times. From the kaolin vial 340 μl was added to a plain TEG cup preloaded with 20 μl of 0.2 M CaCl2 and the analysis started immediately.
FIG. 4: TEG parameters (a) R, (b) Angle and (c) MA of 30 healthy volunteers after totally 15 minutes of i.v. administration of adrenaline. The subjects were catheterized and rested 60 minutes before administration of adrenaline was commenced. Adrenaline was step-wise infused intravenously for 5 minutes at each of the doses 3.5 μg/kg/h, 5.0 μg/kg/h and 6.0 μg/kg/h. Blood samples were collected from an arterial catheter at baseline (t=0) and immediately after each dose (t=5, t=10 and t=15).
FIG. 5: TEG MA measured before and after i.v. infusion of noradrenaline at 4.8 μg/kg/h for 15 minutes in 10 healthy volunteers, mean with 95% Cl. MA before and after noradrenaline was compared by a paired t-test with a p-value<0.05 considered statistically significant.
FIG. 6: TEG MA measured before (t=0) and after i.v. infusion of adrenaline at 4.8 μg/kg/h for 15 minutes (t=15) and 30 minutes after discontinuation of adrenaline administration (t=45). Data presented as mean with 95% Cl.
A whole blood sample for TEG analysis was drawn into a tube containing citrate (9 volumes of blood into 1 volume of 0.129 M citrate; […] system, BD Biosciences, Plymouth, UK) and rested for exactly 30 minutes before analysis: Coagulation was initiated by kaolin and re-calcified according to the instructions of the manufacturer: Citrated whole blood was added to a kaolin vial and mixed by gently inversion 5 times before transfer to the TEG cup containing calcium chloride (20 μl of 0.2 M CaCl2), which was preloaded into the TEG® cup as published previously [Johansson et al. 2008]. The hemostatic process was recorded by use of a TEG® coagulation analyzer (5000 series, Haemoscope Corporation). Adrenaline was mixed with 0.9% NaCl and infused intravenously.
FIG. 3 illustrates TEG profiles from a representative volunteer before and after receiving intravenous infusion of adrenaline 3 μg/kg/h for 15 minutes.

[6] = test system: fibrinolysis
Protocol: Arterial blood was collected in citrate before and after the last adrenaline dose (t=15) and again 30 minutes after end of infusion (t=45). The blood was analyzed with TEG (described in FIG. 3) after addition of tissue plasminogen activator (tPA) in a final concentration of 2.4 nM. (a) A representative example of TEG tracings with tPA induced fibrinolysis before and immediately after infusions of adrenaline. (b) Comparisons of the lysis AUC values t=0 vs. t=15 and t=0 vs. t=45, respectively by 1-way ANOVA, Friedman test and post hoc Dunn's Multiple Comparison Test, **p<0.01, ns: not significant.
When challenging the clot in vitro by induction of fibrinolyis, the Lysis AUC obtained by TEG (see FIG. 2) is a measure of the clot's resistance against fibrinolysis. Healthy subject received step-wise adrenaline infusion as described in FIG. 4, and blood was collected before (t=0), immediately after the infusion (t=15) and 30 minutes after discontinuation (t=45). Citrated whole blood was analysed precisely 30 minutes after blood collection: The fibrinolysis activator tPA (American Diagnostica) was added in a final concentration of 2.4 nM and TEG was performed as described in Example 1 and FIG. 3.

[7] = test system: hemostatic system
Protocol: FIG. 7: TEG parameters (a) R, (b) Angle and (c) MA measured as described in FIG. 3 and example 1 on blood samples collected from patients infused with adrenaline prior to prostatectomy. Ten patients were anesthetized by propofol and haldid and infused with adrenaline i.v. in the doses 1, 2 and 3 μg/kg/h each for 5 minutes prior to skin incision. Hereafter the patients were prostatectomised according to local protocol. Blood samples were collected from an arterial catheter before adrenaline administration and immediately after each infusion dose (1, 2 and 3 μg/kg/h) and again 1 hour after discontinuation of adrenaline infusion. Statistics used: One-way ANOVA, Friedman Test, and Dunn's Multiple Comparison post hoc test of “before” compared to each of the following points 1, 2, 3 μg/kg/h and 1 hour after termination of adrenaline infusion, *p<0.05, **p<0.01,***p<0.001, ns: non significant.
Patients undergoing prostatectomy were anaesthetized by propofol and haldid. Prior to skin incision the patients received a step-wise i.v. infusion of adrenaline in the doses 1, 2 and 3 μg/kg/h each for 5 minutes. TEG analyses were performed as described in example 1, exactly 30 minutes after collection of arterial blood. Blood samples were obtained before and after each dose and 1 hour after discontinuation of adrenaline infusion.

[8] = healthy volunteers, i.v. adrenaline 3 μg/kg/h for 15 minutes (FIG. 3, FIG. 4)
[9] = prostatectomy patients, step-wise i.v. 1, 2 and 3 μg/kg/h each for 5 minutes
[10] = in response to adrenaline infusions

- drop in plasma potassium concentration after adrenaline ([2]; Seloken administered prior to adrenaline): less
- adrenaline-induced increase in SV ([3]; after Seloken administration): not significantly lowered
- adrenaline-induced decrease in TPR ([3]; after Seloken treatment): significantly lower decrease
- adrenaline-induced increase in CO ([3]; when Seloken was administered, all adrenaline concentrations): significantly lower
- adrenaline-induced increase in HR ([3]; when Seloken was infused before adrenaline): practically abrogated/normalized
Compound: COCCc1ccc(OCC(O)CNC(C)C)cc1 (stereo not shown) [Seloken, Metoprolol]
- effect of antagonist on the MA increase after adrenaline ([1]; antagonist i.v. 30 minutes before repeated step-wise adrenaline 3.5, 5.0, 6.0 μg/kg/h, Seloken 0.15 mg/kg for 10 minutes): not affected

- plasma potassium concentrations following administration ([2]; three healthy volunteers): fell
- total peripheral resistance (TPR) ([3]; all adrenaline doses, with and without Seloken): significant decrease
- mean arterial pressure (MAP) ([3]; any of the adrenaline doses used): no effects
- cardiac output (CO) [3, 10]: increase in CO
- stroke volume (SV) [3, 10]: increase in SV
Compound: CNC[C@H](O)c1ccc(O)c(O)c1 [adrenaline, (R)-4-(1-hydroxy-2-(methylamino)ethyl)benzene-1,2-diol]
- perioperative blood loss [4]: reduced perioperative blood loss significantly
- time until MA returns to baseline after discontinuation of infusion ([5]; healthy volunteers, 4.8 μg/kg/h for 15 minutes (FIG. 6)): ≤ 30 min
- MA response ([5]; healthy volunteers, adrenaline infusion 3.5, 5.0, 6.0 μg/kg/h (FIG. 4c)): dose-dependent increase
- TEG Angle (thrombin generation) [5, 8]: increased
- TEG MA (mechanical clot strength) [5, 8]: increased
- TEG R (initiation of the coagulation process) [5, 8]: shorter
- TEG MA after adrenaline administration ([1]; healthy volunteers, step-wise 3.5, 5.0 and 6.0 μg/kg/h (FIG. 10)): increases
- effect on Lysis AUC after discontinuation ([6]; 30 minutes after discontinuation of infusion (t=45)): abrogated
- increase of Lysis AUC (resistance against fibrinolysis) ([6]; healthy subjects, step-wise 3.5, 5.0, 6.0 μg/kg/h, t=15 vs t=0, tPA 2.4 nM): 154%
- pro-hemostatic effect versus dose ([7]; 1, 2 and 3 microgram/kg/hour, compared to baseline (FIG. 7)): dose dependent increase
- pro-hemostatic effect on clot strength (MA) after discontinuation ([7]; 60 min after discontinuation of infusion, prostatectomy patients): abated
- time until MA returns to baseline after discontinuation of infusion ([7]; prostatectomy patients (FIG. 7c)): ≤ 60 min
- TEG Angle (propagation and thrombin generation) [7, 9]: increased
- TEG MA (mechanical strength of the clot) [7, 9]: increased
- TEG R (initiation of the coagulation process) [7, 9]: decreased
- heart rate (HR) ([3]; adrenaline alone, 3.5, 5.0, 6.0 μg/kg/h): increased HR significantly

Compound: NC[C@H](O)c1ccc(O)c(O)c1 [noradrenaline, 4-(2-Amino-1-hydroxyethyl)benzene-1,2-diol]
- pro-hemostatic effect (TEG MA) ([5]; 10 healthy subjects, i.v. 4.8 μg/kg/h for 15 minutes (FIG. 5)): pro-hemostatic effect
